How the values were obtained:
[1] = Selectivity index, ratio of IC50 for rat L6 cells to IC50 for Trypanosoma brucei rhodesiense STIB 900 bloodstream trypomastigote; type: toxicity; conditions: read-out: Ratio IC50
[2] = Selectivity index, ratio of IC50 for rat L6 cells to IC50 for Leishmania donovani MHOM/ET/67/L82 axenic amastigote; type: toxicity; conditions: read-out: Ratio IC50
Trypanosoma cruzi = assay: Antiprotozoal activity against Trypanosoma cruzi Tulahuen C4 intracellular amastigote infected in rat L6 cells assessed as parasite growth inhibition incubated for 96 hrs in presence of CPRG/Nonidet by photometry; type: functional, organism-based; conditions: Tulahuen C4, L6, 96 h
[3] = Selectivity index, ratio of IC50 for rat L6 cells to IC50 for erythrocytic stage Plasmodium falciparum NF54; type: toxicity; conditions: read-out: Ratio IC50
[4] = Selectivity index, ratio of IC50 for rat L6 cells to IC50 for Trypanosoma cruzi Tulahuen C4 intracellular amastigote infected in rat L6 cells; type: toxicity, cell-based; conditions: read-out: Ratio IC50
Plasmodium falciparum [5] = assay: Antiprotozoal activity against erythrocytic stage Plasmodium falciparum NF54 assessed as parasite growth inhibition incubated for 48 hrs by [3H]hypoxanthine incorporation assay; type: functional, organism-based
[6] = test system: Trypanosoma brucei rhodesiense; assay: Antiprotozoal activity against Trypanosoma brucei rhodesiense STIB 900 bloodstream trypomastigote assessed as parasite growth inhibition incubated for 70 hrs by resazurin dye based assay; type: functional, organism-based; conditions: STIB 900, 70 h
Leishmania donovani [7] = assay: Antiprotozoal activity against Leishmania donovani MHOM/ET/67/L82 axenic amastigote assessed as parasite growth inhibition incubated for resazurin dye based fluorometry; type: functional, organism-based
[8] = Cytotoxicity against rat L6 cells assessed as cell growth inhibition incubated for 70 hrs by Alamar Blue staining based […]; type: toxicity
Plasmodium falciparum [9] = assay: Inhibition of Plasmodium falciparum DHODH assessed as residual activity using DCIP as substrate at 10 uM relative to control
Plasmodium falciparum [10] = assay: Antiprotozoal activity against Chloroquine-resistant Plasmodium falciparum K1 assessed as parasite growth inhibition; type: functional, organism-based
Plasmodium falciparum [11] = assay: Inhibition of Plasmodium falciparum DHODH assessed as residual activity using DCIP as substrate at 50 uM relative to control
Plasmodium falciparum [12] = assay: Inhibition of Plasmodium falciparum DHODH using DCIP as substrate at 50 uM relative to control
Plasmodium falciparum [13] = assay: Inhibition of Plasmodium falciparum DHODH using DCIP as substrate at 10 uM relative to control
Leishmania donovani [14] = assay: Antiprotozoal activity against Leishmania donovani MHOM-ET-67/L82 axenic amastigotes assessed as parasite growth inhibition incubated for 70 hrs by resazurin dye based inverted microscopy; conditions: MHOM-ET-67/L82, 70 h
[15] = Displacement of [3H]-(+)-pentazocine from Sigma1 receptor derived from pig brain assessed as inhibition constant measured after 120 mins by scintillation counter analysis; type: tissue-based, Sus scrofa
Plasmodium falciparum [16] = assay: Potency index, ratio of Chloroquine IC50 to test compound IC50 for Chloroquine-resistant Plasmodium falciparum K1 assessed as parasite growth inhibition; type: functional
Plasmodium falciparum [17] = assay: Antiplasmodial activity against Plasmodium falciparum 3D7 assessed as parasite growth inhibition incubated for 24 hrs by FACS analysis; type: functional, organism-based
[18] = Displacement of [14C]lactate from Plasmodium falciparum FNT expressed in Saccharomyces cerevisiae incubated for 24 hrs by liquid scintillation counter method

Row | SMILES | selectivity ratio [1] | selectivity ratio [2] | IC50 (Trypanosoma cruzi) | selectivity ratio [3] | selectivity ratio [4] | IC50 (Plasmodium falciparum [5]) | IC50 [6] | IC50 (Leishmania donovani [7]) | IC50 at 70 h [8] | Activity (Plasmodium falciparum [9]) | IC50 (Plasmodium falciparum [10]) | Activity (Plasmodium falciparum [11]) | inhibition (Plasmodium falciparum [12]) | inhibition (Plasmodium falciparum [13]) | IC50 (Leishmania donovani [14]) | Ki [15] | Ratio IC50 (Plasmodium falciparum [16]) | IC50 (Plasmodium falciparum [17]) | IC50 [18]
1 | CC1(C)C=Cc2cc(CNCCCc3ccccc3)c(O)cc2O1 | 28 | 0.7 | 28 µM | 346 | 1 | 0.081 µM | 1.01 µM | 43 µM | 28 µM | – | – | – | – | – | – | – | – | – | –
2 | CC1(C)CCc2c(ccc(CNCCCCc3ccccc3)c2O)O1 | 4 | 0.4 | 18 µM | 83 | 0.8 | 0.18 µM | 3.4 µM | 42 µM | 15 µM | – | – | – | – | – | – | – | – | – | –
3 | CC1(C)CCc2c(ccc(CNCCCc3ccccc3)c2O)O1 | 8 | 0.5 | 31 µM | 180 | 0.9 | 0.15 µM | 3.4 µM | 52 µM | 27 µM | – | – | – | – | – | – | – | – | – | –
4 | CC1(C)CCc2cc(C(O)CNCc3ccccc3)c(O)cc2O1 (stereo not drawn) | 7 | 0.9 | 48 µM | 460 | 1 | 0.1 µM | 6.4 µM | 54 µM | 46 µM | – | – | – | – | – | – | – | – | – | –
5 | C[C@H](NCc1ccccc1)c1cc2c(cc1O)OC(C)(C)C=C2 | – | – | – | – | – | – | – | – | – | 116% | 0.01 µM | 96% | 1% | 5% | – | – | – | – | –
6 | CC1(C)CCc2cc(CNCCCCc3ccccc3)c3c(c2O1)CCC(C)(C)O3 | 6 | 0.7 | 5.4 µM | 15 | 0.6 | 0.21 µM | 0.54 µM | 4.9 µM | 3.2 µM | – | – | – | – | – | – | – | – | – | –
7 | CC1(C)C=Cc2cc(CNCCCCc3ccccc3)c(O)cc2O1 | 17 | 0.8 | 17 µM | 241 | 1 | 0.079 µM | 1.09 µM | 25 µM | 19 µM | – | – | – | – | – | – | – | – | – | –
8 | CCCCCCCCCCCCCCCCOP(=O)([O-])OCC[N+](C)(C)C [MILTEFOSINE] | – | – | – | – | – | – | – | – | – | – | – | – | – | – | 0.471 µM | – | – | – | –
9 | CC1(C)CCc2cc(CNCCc3ccccc3)c(O)cc2O1 | – | – | – | 531 | – | 0.081 µM | – | – | 43 µM | – | – | – | – | – | – | – | – | – | –
10 | CC1(C)CCc2cc(CNCc3ccccc3)c3c(c2O1)CCC(C)(C)O3 | 4 | 0.4 | 9.5 µM | 12 | 0.6 | 0.47 µM | 1.4 µM | 13 µM | 5.6 µM | – | – | – | – | – | – | – | – | – | –
11 | CC1(C)CCc2cc(C(O)CNCCCc3ccccc3)c(O)cc2O1 (stereo not drawn) | 5 | 0.7 | 28 µM | 1470 | 0.9 | 0.017 µM | 5.3 µM | 36 µM | 25 µM | – | – | – | – | – | – | – | – | – | –
12 | CC1(C)CCc2cc(CNCc3ccccc3)c(O)cc2O1 | – | – | – | 222 | – | 0.099 µM | – | – | 22 µM | – | – | – | – | – | – | – | – | – | –
13 | CC1(C)CCc2cc(CNCCc3ccccc3)c3c(c2O1)CCC(C)(C)O3 | 5 | 0.3 | 9.1 µM | 15 | 0.4 | 0.24 µM | 0.7 µM | 12 µM | 3.5 µM | – | – | – | – | – | – | – | – | – | –
14 | CC1(C)C=Cc2cc(CNCc3ccccc3)c(O)cc2O1 | 63 | 0.9 | 534 µM | 356 | 0.1 | 0.16 µM | 0.91 µM | 65 µM | 57 µM | – | – | – | – | – | – | – | – | – | –
15 | CC1(C)CCc2cc(CNCCCc3ccccc3)c3c(c2O1)CCC(C)(C)O3 | 3 | 0.2 | 5.2 µM | 7 | 0.5 | 0.37 µM | 0.83 µM | 11 µM | 2.6 µM | – | – | – | – | – | – | – | – | – | –
16 | CC1(C)C=Cc2cc(CNCCc3ccccc3)c(O)cc2O1 | 69 | 0.4 | 28 µM | 605 | 2 | 0.076 µM | 0.67 µM | 105 µM | 46 µM | – | – | – | – | – | – | – | – | – | –
17 | COCOc1cc2c(cc1CCCNCc1ccccc1)CCC(C)(C)O2 | – | – | – | – | – | – | – | – | – | – | – | – | – | – | – | 0.0024 µM | – | – | –
18 | C[C@@H](NCc1ccccc1)c1cc2c(cc1O)OC(C)(C)C=C2 | – | – | – | – | – | – | – | – | – | 110% | 0.02 µM | 91% | 1% | 3% | – | – | – | – | –
19 | CC(NCc1ccccc1)c1cc2c(cc1O)OC(C)(C)C=C2 (racemic) | – | – | – | – | – | – | – | – | – | – | 0.026 µM | – | – | – | – | – | 26 | – | –
20 | CC1(C)CCc2c(ccc(CNCCc3ccccc3)c2O)O1 | 6 | 0.3 | 53 µM | 3600 | 0.7 | 0.01 µM | 6.5 µM | 141 µM | 36 µM | – | – | – | – | – | – | – | – | – | –
21 | CC(NCCCc1ccccc1)c1cc2c(cc1O)OC(C)(C)C=C2 (racemic) | – | – | – | – | – | – | – | – | – | 116% | 0.886 µM | 98% | 4% | 3% | – | – | 13 | – | –
22 | CC1(C)CCc2cc(CNCCCCc3ccccc3)c(O)cc2O1 | 33 | 0.1 | 13 µM | 214 | 1 | 0.07 µM | 0.46 µM | 138 µM | 15 µM | – | – | – | – | – | – | – | – | – | –
23 | CC1(C)CCc2c(ccc(CNCc3ccccc3)c2O)O1 | 3 | 1 | 57 µM | 1130 | 1 | 0.053 µM | 22 µM | 52 µM | 60 µM | – | – | – | – | – | – | – | – | – | –
24 | CC1(C)CCc2cc(CCCNCc3ccccc3)c(O)cc2O1 | 5 | 2 | 15 µM | 24 | 2 | 0.98 µM | 4.6 µM | 15 µM | 24 µM | – | – | – | – | – | – | 0.0048 µM | – | – | –
25 | COc1ccc(C(=O)/C=C(\O)C(F)(F)C(F)(F)F)c(O)c1 | – | – | – | – | – | – | – | – | – | – | – | – | – | – | – | – | – | 0.14 µM | 0.17 µM
